Data reported in patent US11453632B2, “1-phenyl-2-phenylethane derivative” (KAO CORPORATION, priority 2018, dated 2022).

What was measured:
ERα LBD = target: T1, ERα LBD (Homo sapiens, UniProt P03372); experiment: Ability to bind to ERα: pBIND-ERα LBD / GAL4 luciferase reporter in HEK293 cells; type: cell-based; set-up: key: firefly luciferase / Renilla luciferase luminescence ratio; conditions: negative control 0.00847035
T1 construct: host or cells: HEK293
T1 sequence (P03372 311-547 limits assumed): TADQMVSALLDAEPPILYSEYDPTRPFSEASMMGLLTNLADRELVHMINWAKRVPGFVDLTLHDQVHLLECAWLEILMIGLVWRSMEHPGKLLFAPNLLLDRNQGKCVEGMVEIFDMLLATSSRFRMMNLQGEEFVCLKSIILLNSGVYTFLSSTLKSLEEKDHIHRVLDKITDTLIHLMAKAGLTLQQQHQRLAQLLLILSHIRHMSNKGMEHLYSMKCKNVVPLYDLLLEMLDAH
Experimental: A human kidney-derived cell line HEK293 was cultured (37° C., 5% CO2) in Dulbecco's modified Eagle medium (hereinafter, abbreviated to DMEM) containing 10% (v/v) fetal bovine serum (FBS) and penicillin/streptomycin.
2) Measurement of Binding Activity Against ERs
Specifically, HEK293 cells were inoculated at a cell density of 4.0×10^4 cells/well to a 96-well plate. After 12 hours therefrom, the medium was replaced with a culture solution (DMEM containing 5% (v/v) charcoal-treated serum). The cells were cotransfected with pBIND-ERα for the expression of ERα LBD or pBIND-ERβ for the expression of ERβ LBD (Promega Corp.) and pGL4.35[luc2P/9XGAL4UAS/Hygro](Promega Corp.) using Lipofectamine 2000 (Invitrogen Corp.) according to the protocol attached to the product. 24 hours after transfection, the medium was replaced with a culture solution containing a test sample, followed by culture for another 24 hours. The activity measurement of firefly luciferase (index for the ligand binding activity of ER) and Renilla reniformis luciferase (index for the transfection efficiency of the plasmids) was carried out using Dual-Glo™ Luciferase Assay System (Promega Corp.) according to the attached protocol. The luminescence intensity of the firefly luciferase was divided by the luminescence intensity of the Renilla reniformis luciferase to calculate a relative light unit (RLU).

[1] = tested on: tail skin temperature of ovariectomized rat; experiment: Tail skin temperature in ovariectomized (OVX) rat; type: in vivo
Experimental: 8-week-old female Crl:CD (SD) rats were obtained from Charles River Laboratories Japan, Inc. and individually identified by the ear punching method on the receipt date. Then, an acclimatization period was established for 1 week. The animals were raised in a rearing room under a set environment involving a temperature of 22±3° C., a humidity of 50±20%, air ventilation from 13 to 17 times/hour, and a lighting time from 8:00 to 20:00. During the acclimatization period, the rats were allowed to freely ingest solid feed CRF-1 (Oriental Yeast Co., Ltd.). Since the feeding with CRF-1, the rats were allowed to freely ingest customized feed AIN-93G (Oriental Yeast Co., Ltd.) free from components derived from soybeans.
1-2) Sham Surgery and Oophorectomy Surgery (OVX)
On the end date of acclimatization and the following day, the flank cavity was opened under isoflurane anesthesia to harvest the right and left ovaries including fallopian tubes. Other non-OVX rats were subjected to only opening and suture (sham surgery). Immediately thereafter, an antibiotic was subcutaneously administered at a dose of 100 μl/animal. After the surgery, the sham surgery or OVX animals were given customized feed and raised for approximately 1 week.
1-3) Acclimatization to Skin Temperature Measurement Environment […]
Before administration of a test substance and from 12:00 to 3:00 (dark phase) of 3, 5, 7, 14, and 21 days after the start of administration, the rats were placed in restrainers without anesthesia, and skin temperatures were measured at a site 3 cm on the tip side from the tail root using the infrared radiation thermometer. […]
Skin temperatures differed largely among individuals, and the Smirnov-Grubbs test was conducted in order to exclude outliers beforehand. Results of measuring tail skin temperatures and results of measuring uterus weights were statistically analyzed by testing using the Dunnett's test.

relative light unit (RLU), ligand binding activity ERα (ERα LBD; 0.01 nM): 0.02573
relative light unit (RLU), ligand binding activity ERα (ERα LBD; 0.1 nM): 0.06025
relative light unit (RLU), ligand binding activity ERα (ERα LBD; 1 nM): 0.2198
relative light unit (RLU), ligand binding activity ERα (ERα LBD; 10 nM): 1.873
relative light unit (RLU), ligand binding activity ERα (ERα LBD; 100 nM): 3.193
SMILES: Oc1ccc(CC(C=C(F)F)c2ccc(O)cc2F)c(F)c1 (centres unmarked) [Compound 17-F, 4,4′-(4,4-difluorobut-3-ene-1,2-diyl)bis(3-fluorophenol)]
tail skin temperature, raw value and changed temperature from the initial value ([1]; 4, 40, and 400 μg/kg subcutaneous, 3 days after the start of administration, vs negative solvent): confirmed to decrease
tail skin temperature, drug efficacy ([1]; subcutaneous, 5 days after the start of administration): temporarily disappeared
tail skin temperature, raw value and changed temperature ([1]; subcutaneous, 7 days after the start of administration): confirmed to decrease again
